Patent publication US7749980B2, “Non-nucleotide compositions and method for treating pain” (Inspire Pharmaceuticals, Inc., priority 2003, dated 2010)

Tested on: mice
Test: acetic acid-induced abdominal constriction assay for visceral pain in mice
Format: in vivo
Settings: for number of averaged abdominal constrictions during the observation time interval compared to saline control: 50 mg/kg i.p. in physiological saline, 10 minutes prior to i.p. 0.9% acetic acid, 10 minutes of observation starting 5 minutes after acetic acid, statistical difference versus saline control group; for pharmacological effect over saline vehicle control in reducing the abdominal constrictions induced by 0.9% acetic acid: similar studies, dose dependence
Description: The method employed is a modification of the abdominal constriction test described by Collier, et. al (Collier, et al., Br. J. Pharmacol. Chemother. 32: 295-310 (1968)). For the rest of the example, compound: 6-(phenylureido)purine-2′, 3′-(4-ethylcyclohexylspiroketyl)-5′-nicotinyl-ribofuranoside is named “Compound A” and {6-[6-(Cyclohexylmethyl-amino)-purin-9-yl]-2-isobutyl-tetrahydro-furo[3,4-d][1,3]dioxol-4-yl}-methanol is named “Compound B”.
Briefly, a group of eight mice is designated as the control group, and each of said mice in the group receives an intraperitoneal (i.p.) injection of physiological saline in a dose-volume: mouse-weight ratio of 5 mL/kg ten minutes prior to an i.p. injection of 0.9% acetic acid in physiological saline in a dose-volume: mouse-weight ratio of 10 mL/kg. Each of said mice in the control group is placed in its own observation chamber shortly after the acetic acid injection and is allowed to explore. Each testing period starts 5 minutes after the acetic acid injection into a mouse, and consists of 10 minutes of observation during which time the number of abdominal constrictions of the mouse are counted. Abdominal constriction is defined as a lengthwise stretching of the torso with concave arching of the back. An average number of total constrictions per mouse per observation time is calculated from mice in the control group, and this indicates a baseline level of pain response in the control group animals.
Compound A is administered i.p., at a dose of 50 mg/kg suspended in a volume of physiological saline (5 mL/kg), 10 minutes prior to the administration of acetic acid, as described for the control group above.
Compound B is administered i.p., at a dose of 50 mg/kg suspended in a volume of physiological saline (5 mL/kg), 10 minutes prior to the administration of acetic acid, as described for the control group above.

Molecule	number of averaged abdominal constrictions during the observation time interval compared to saline control	pharmacological effect over saline vehicle control in reducing the abdominal constrictions induced by 0.9% acetic acid
6-(phenylureido)purine-2′, 3′-(4-ethylcyclohexylspiroketyl)-5′-nicotinyl-ribofuranoside [Compound A]	lower	dose dependent pharmacological effect
CC(C)CC1OC2C(CO)OC(n3cnc4c(NCC5CCCCC5)ncnc43)C2O1 (stereo not shown) [Compound B, {6-[6-(Cyclohexylmethyl-amino)-purin-9-yl]-2-isobutyl-tetrahydro-furo[3,4-d][1,3]dioxol-4-yl}-methanol]	lower	dose dependent pharmacological effect
